From patent publication US7846959B2, “Raf modulators and methods of use” (Exelixis, Inc., priority 2004, dated 2010)
Read-outs that look alike come from different tables or passages of the source.

How the values were obtained:
[1] = target: c-Raf (Homo sapiens, UniProt P04049); experiment: Luciferase-coupled chemiluminescence kinase assay (ATP consumption), c-Raf; type: biochemical
Outline: (§1)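 ATP depletion, limited to 25-60%, read by luciferase-luciferin chemiluminescence gives IC50 values. Before the 3 hr ambient-temperature kinase reaction with ATP, compound and […] enzyme were preincubated 30 minutes at room temperature in Tris pH 7.5 buffer with MgCl2, TX-100 and DTT.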

[2] = target: B-Raf (Homo sapiens, UniProt P15056); experiment: Luciferase-coupled chemiluminescence kinase assay (ATP consumption), B-Raf; type: biochemical
Outline: as §1

[3] = read-out: cRaf-1 (inhibition indicated as IC50)
[4] = read-out: bRaf (inhibition indicated as IC50)

Chain of B-Raf (P15056 whole entry): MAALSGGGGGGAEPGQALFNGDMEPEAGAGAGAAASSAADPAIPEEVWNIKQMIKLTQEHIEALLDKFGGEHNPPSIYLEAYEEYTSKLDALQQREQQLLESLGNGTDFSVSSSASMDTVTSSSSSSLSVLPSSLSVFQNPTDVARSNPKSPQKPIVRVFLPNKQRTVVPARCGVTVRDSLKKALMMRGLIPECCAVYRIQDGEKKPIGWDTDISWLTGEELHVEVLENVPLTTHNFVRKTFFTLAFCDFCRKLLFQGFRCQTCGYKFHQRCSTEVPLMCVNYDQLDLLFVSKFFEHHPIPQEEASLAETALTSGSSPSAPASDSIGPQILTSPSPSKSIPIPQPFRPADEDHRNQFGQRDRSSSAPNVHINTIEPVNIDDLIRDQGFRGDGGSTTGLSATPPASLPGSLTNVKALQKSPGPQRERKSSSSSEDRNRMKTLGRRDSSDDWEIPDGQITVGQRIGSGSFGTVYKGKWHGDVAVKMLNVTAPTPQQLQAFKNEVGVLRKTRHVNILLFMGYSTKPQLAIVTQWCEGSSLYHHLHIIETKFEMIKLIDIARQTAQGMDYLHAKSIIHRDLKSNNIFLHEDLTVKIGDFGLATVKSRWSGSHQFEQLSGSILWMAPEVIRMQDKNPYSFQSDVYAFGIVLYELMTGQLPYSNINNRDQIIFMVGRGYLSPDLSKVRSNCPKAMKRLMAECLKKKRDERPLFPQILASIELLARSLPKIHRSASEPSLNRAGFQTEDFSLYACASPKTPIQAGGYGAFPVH
Chain of c-Raf (P04049 whole entry): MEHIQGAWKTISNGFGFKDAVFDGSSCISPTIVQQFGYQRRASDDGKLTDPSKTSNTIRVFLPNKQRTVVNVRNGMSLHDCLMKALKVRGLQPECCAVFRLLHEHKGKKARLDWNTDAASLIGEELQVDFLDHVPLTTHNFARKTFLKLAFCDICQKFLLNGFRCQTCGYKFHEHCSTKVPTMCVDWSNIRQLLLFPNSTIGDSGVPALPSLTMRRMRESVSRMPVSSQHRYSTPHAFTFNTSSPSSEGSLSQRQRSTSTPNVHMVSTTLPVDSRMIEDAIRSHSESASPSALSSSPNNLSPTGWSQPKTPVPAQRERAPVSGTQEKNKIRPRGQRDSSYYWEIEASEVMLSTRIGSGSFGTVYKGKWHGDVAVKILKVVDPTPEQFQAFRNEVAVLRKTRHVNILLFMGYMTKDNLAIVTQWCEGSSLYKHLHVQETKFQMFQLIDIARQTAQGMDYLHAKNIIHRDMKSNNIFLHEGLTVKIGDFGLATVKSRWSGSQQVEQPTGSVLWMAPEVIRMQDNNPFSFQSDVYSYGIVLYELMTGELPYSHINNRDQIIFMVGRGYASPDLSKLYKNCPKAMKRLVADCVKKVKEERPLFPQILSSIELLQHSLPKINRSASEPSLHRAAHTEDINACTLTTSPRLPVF

| Compound | IC50 [1, 3] [nM] | IC50 [2, 4] [nM] | IC50 ([1]; read-out: cRaf-1 IC50) [nM] | IC50 ([2]; read-out: bRaf IC50) [nM] |
| --- | --- | --- | --- | --- |
| C=Cc1cccc(NC(=O)c2ccccc2C(=O)c2ccc3nc(NC(=O)OC)[nH]c3c2)c1 [Entry 413, methyl {6-[(2-{[(3-ethenylphenyl)amino]carbonyl}phenyl)carbonyl]-1H-benzimidazol-2-yl}carbamate] | < 100 | < 100 | – | – |
| COc1cc(C)nc(Nc2nc3cc(C4(O)c5ccccc5C(=O)N4c4cccc(Cl)c4F)ccc3[nH]2)n1 (stereo not drawn) [Entry 387, 2-(3-chloro-2-fluorophenyl)-3-hydroxy-3-(2-{[4-methyl-6-(methyloxy)pyrimidin-2-yl]amino}-1H-benzimidazol-5-yl)-2,3-dihydro-1H-isoindol-1-one] | < 100 | < 100 | – | – |
| COC(=O)Nc1nc2ccc(C(=O)c3ccccc3C(=O)Nc3cccc(OC)c3)cc2[nH]1 [Entry 397, methyl (6-{[2-({[3-(methyloxy)phenyl]amino}carbonyl)phenyl]carbonyl}-1H-benzimidazol-2-yl)carbamate] | < 100 | < 100 | – | – |
| COC(=O)Nc1nc2ccc(C3(O)c4ccccc4C(=O)N3Cc3ccccc3)cc2n1C (stereo not drawn) [Entry 107, methyl {6-[1-hydroxy-3-oxo-2-(phenylmethyl)-2,3-dihydro-1H-isoindol-1-yl]-1-methyl-1H-benzimidazol-2-yl}carbamate] | – | – | ≥ 10000 | ≥ 10000 |
| O=C1COc2ccc(C3(O)c4ccccc4C(=O)N3c3cc(F)cc(F)c3)cc2N1 (stereo not drawn) [Entry 68, 6-[2-(3,5-difluorophenyl)-1-hydroxy-3-oxo-2,3-dihydro-1H-isoindol-1-yl]-2H-1,4-benzoxazin-3(4H)-one] | – | – | 1000 to 10000 | 1000 to 10000 |
| COC(=O)Nc1nc2cc(C3(O)c4ccccc4C(=O)N3c3cccc(I)c3F)ccc2[nH]1 (stereo not drawn) [Entry 362, methyl {5-[2-(2-fluoro-3-iodophenyl)-1-hydroxy-3-oxo-2,3-dihydro-1H-isoindol-1-yl]-1H-benzimidazol-2-yl}carbamate] | < 100 | < 100 | – | – |
| O=C1COc2ccc(C3(O)c4ccccc4C(=O)N3Cc3ccccc3Br)cc2N1 (stereo not drawn) [Entry 37, 6-{2-[(2-bromophenyl)methyl]-1-hydroxy-3-oxo-2,3-dihydro-1H-isoindol-1-yl}-2H-1,4-benzoxazin-3(4H)-one] | – | – | ≥ 10000 | ≥ 10000 |
| C#Cc1cccc(N2C(=O)c3ccccc3C2(O)c2ccc3c(c2)NC(=O)CO3)c1 (stereo not drawn) [Entry 77, 6-[2-(3-ethynylphenyl)-1-hydroxy-3-oxo-2,3-dihydro-1H-isoindol-1-yl]-2H-1,4-benzoxazin-3(4H)-one] | – | – | 100 to 1000 | 100 to 1000 |
| COC(=O)Nc1nc2cc(C3(O)c4ccccc4C(=O)N3c3cc(F)cc(Br)c3F)ccc2[nH]1 (stereo not drawn) [Entry 307, methyl {5-[2-(3-bromo-2,5-difluorophenyl)-1-hydroxy-3-oxo-2,3-dihydro-1H-isoindol-1-yl]-1H-benzimidazol-2-yl}carbamate] | < 100 | < 100 | – | – |
| Cc1cccc(N2C(=O)c3ccccc3C2(O)c2ccc3nc(Nc4cnccn4)[nH]c3c2)c1 (stereo not drawn) [Entry 388, 3-hydroxy-2-(3-methylphenyl)-3-[2-(pyrazin-2-ylamino)-1H-benzimidazol-6-yl]-2,3-dihydro-1H-isoindol-1-one] | < 100 | < 100 | – | – |
| COC(=O)Nc1nc2cc(C3(O)c4ccccc4C(=O)N3c3ccc(Br)cc3)ccc2[nH]1 (stereo not drawn) [Entry 138, methyl {5-[2-(4-bromophenyl)-1-hydroxy-3-oxo-2,3-dihydro-1H-isoindol-1-yl]-1H-benzimidazol-2-yl}carbamate] | – | – | 100 to 1000 | 100 to 1000 |
| COC(=O)Nc1nc2cc(C3(O)c4ccccc4C(=O)N3c3cc(Br)ccc3F)ccc2[nH]1 (stereo not drawn) [Entry 230, methyl {5-[2-(5-bromo-2-fluorophenyl)-1-hydroxy-3-oxo-2,3-dihydro-1H-isoindol-1-yl]-1H-benzimidazol-2-yl}carbamate] | – | – | < 100 | < 100 |
| COC(=O)Nc1nc2cc(C3(O)c4ccccc4C(=O)N3Cc3ccccc3OC)ccc2[nH]1 (stereo not drawn) [Entry 116, methyl [5-(1-hydroxy-2-{[2-(methyloxy)phenyl]methyl}-3-oxo-2,3-dihydro-1H-isoindol-1-yl)-1H-benzimidazol-2-yl]carbamate] | – | – | 1000 to 10000 | 1000 to 10000 |
| COC(=O)Nc1nc2cc(C(=O)c3ccccc3C(=O)NNc3ccccc3)ccc2[nH]1 [Entry 271, methyl [5-({2-[(2-phenylhydrazino)carbonyl]phenyl}carbonyl)-1H-benzimidazol-2-yl]carbamate] | 100 to 1000 | 100 to 1000 | – | – |
| Nc1cccc(N2C(=O)c3ccccc3C2(O)c2ccc3c(c2)NC(=O)CO3)c1 (stereo not drawn) [Entry 67, 6-[2-(3-aminophenyl)-1-hydroxy-3-oxo-2,3-dihydro-1H-isoindol-1-yl]-2H-1,4-benzoxazin-3(4H)-one] | – | – | 100 to 1000 | 100 to 1000 |
| COC(=O)Nc1nc2cc(C3(O)c4ccccc4C(=O)N3c3c(F)cccc3F)ccc2[nH]1 (stereo not drawn) [Entry 193, methyl {5-[2-(2,6-difluorophenyl)-1-hydroxy-3-oxo-2,3-dihydro-1H-isoindol-1-yl]-1H-benzimidazol-2-yl}carbamate] | – | – | < 100 | < 100 |
| Cc1ccccc1N1C(=O)c2ccccc2C1(O)c1ccc2c(c1)NC(=O)CO2 (stereo not drawn) [Entry 90, 6-[1-hydroxy-2-(2-methylphenyl)-3-oxo-2,3-dihydro-1H-isoindol-1-yl]-2H-1,4-benzoxazin-3(4H)-one] | – | – | 1000 to 10000 | 1000 to 10000 |
| COC(=O)Nc1nc2ccc(C3CCC(=O)N3c3cccc(Br)c3)cc2[nH]1 (stereo not drawn) [Entry 313, methyl {6-[1-(3-bromophenyl)-5-oxopyrrolidin-2-yl]-1H-benzimidazol-2-yl}carbamate] | 1000 to 10000 | 1000 to 10000 | – | – |
| COC(=O)Nc1nc2cc(C3(O)c4ccccc4C(=O)N3c3cc(Br)c(F)cc3F)ccc2[nH]1 (stereo not drawn) [Entry 244, methyl {5-[2-(5-bromo-2,4-difluorophenyl)-1-hydroxy-3-oxo-2,3-dihydro-1H-isoindol-1-yl]-1H-benzimidazol-2-yl}carbamate] | – | – | < 100 | < 100 |
| C[C@H](c1ccccc1)N1C(=O)c2ccccc2C1(O)c1ccc2[nH]c(NC(=O)OCc3ccccc3)nc2c1 (stereo partly drawn) [Entry 150, phenylmethyl (5-{1-hydroxy-3-oxo-2-[(1R)-1-phenylethyl]-2,3-dihydro-1H-isoindol-1-yl}-1H-benzimidazol-2-yl)carbamate] | – | – | < 100 | < 100 |
| CCNC(=O)Nc1nc2ccc(C3(O)c4ccccc4C(=O)N3c3ccc(F)cc3)cc2[nH]1 (stereo not drawn) [Entry 260, N-ethyl-N′-{6-[2-(4-fluorophenyl)-1-hydroxy-3-oxo-2,3-dihydro-1H-isoindol-1-yl]-1H-benzimidazol-2-yl}urea] | – | – | < 100 | < 100 |
| CS(=O)(=O)c1cccc(N2C(=O)c3ccccc3C2(O)c2ccc3c(c2)NC(=O)CO3)c1 (stereo not drawn) [Entry 69, 6-{1-hydroxy-2-[3-(methylsulfonyl)phenyl]-3-oxo-2,3-dihydro-1H-isoindol-1-yl}-2H-1,4-benzoxazin-3(4H)-one] | – | – | ≥ 10000 | ≥ 10000 |
| C#Cc1cc(N2C(=O)c3ccccc3C2(O)c2ccc3[nH]c(NC(=O)OC)nc3c2)c(F)cc1F (stereo not drawn) [Entry 352, methyl {5-[2-(5-ethynyl-2,4-difluorophenyl)-1-hydroxy-3-oxo-2,3-dihydro-1H-isoindol-1-yl]-1H-benzimidazol-2-yl}carbamate] | < 100 | < 100 | – | – |
| COC(=O)Nc1nc2cc(C3(O)c4ccccc4C(=O)N3c3cccc(OC(F)(F)C(F)F)c3)ccc2[nH]1 (stereo not drawn) [Entry 255, methyl [5-(1-hydroxy-3-oxo-2-{3-[(1,1,2,2-tetrafluoroethyl)oxy]phenyl}-2,3-dihydro-1H-isoindol-1-yl)-1H-benzimidazol-2-yl]carbamate] | – | – | 1000 to 10000 | 1000 to 10000 |
| COC(=O)Nc1nc2cc(C3(O)c4ccccc4C(=O)N3c3cc(Cl)ccc3C)ccc2[nH]1 (stereo not drawn) [Entry 285, methyl {5-[2-(5-chloro-2-methylphenyl)-1-hydroxy-3-oxo-2,3-dihydro-1H-isoindol-1-yl]-1H-benzimidazol-2-yl}carbamate] | < 100 | < 100 | – | – |
| CN(C)C(=O)Nc1nc2cc(C3(O)c4ccccc4C(=O)N3Cc3ccccc3)ccc2[nH]1 (stereo not drawn) [Entry 158, N′-{5-[1-hydroxy-3-oxo-2-(phenylmethyl)-2,3-dihydro-1H-isoindol-1-yl]-1H-benzimidazol-2-yl}-N,N-dimethylurea] | – | – | < 100 | < 100 |
| O=C1COc2ccc(C3(O)c4ccccc4C(=O)N3c3cccc([N+](=O)[O-])c3)cc2N1 (stereo not drawn) [Entry 42, 6-[1-hydroxy-2-(3-nitrophenyl)-3-oxo-2,3-dihydro-1H-isoindol-1-yl]-2H-1,4-benzoxazin-3(4H)-one] | – | – | 100 to 1000 | 1000 to 10000 |
| COCC(C)(C)COC(=O)Nc1nc2cc(C3(O)c4ccccc4C(=O)N3Cc3ccccc3)ccc2[nH]1 (stereo not drawn) [Entry 247, 2,2-dimethyl-3-(methyloxy)propyl {5-[1-hydroxy-3-oxo-2-(phenylmethyl)-2,3-dihydro-1H-isoindol-1-yl]-1H-benzimidazol-2-yl}carbamate] | – | – | 100 to 1000 | 100 to 1000 |
| CSc1ccccc1CN1C(=O)c2ccccc2C1(O)c1ccc2c(c1)NC(=O)CO2 (stereo not drawn) [Entry 57, 6-(1-hydroxy-2-{[2-(methylthio)phenyl]methyl}-3-oxo-2,3-dihydro-1H-isoindol-1-yl)-2H-1,4-benzoxazin-3(4H)-one] | – | – | ≥ 10000 | ≥ 10000 |
| COC(=O)Nc1nc2cc(C3(O)c4ccccc4C(=O)N3c3cc(C)ccc3C)ccc2[nH]1 (stereo not drawn) [Entry 365, methyl {5-[2-(2,5-dimethylphenyl)-1-hydroxy-3-oxo-2,3-dihydro-1H-isoindol-1-yl]-1H-benzimidazol-2-yl}carbamate] | < 100 | < 100 | – | – |
